IC50 data for 26 molecules are collected here from US20050107400A1, “Use of pyrazolopyridines as therapeutic compounds” (priority 2001, published 2005).

The first test deals with HSV-1. Description: HSV-1 replication in infected Vero 76 cells, DNA hybridization capture assay. The test is classed as cell-based, herpes simplex virus 1. Particulars: Human alphaherpesvirus 1, Vero 76. As for the experimental part:
a) Tissue Culture and HSV Infection.
Vero 76 cells were maintained in MEM with Earle's salts, L-glutamine, 8% FBS (Hyclone, A-1111-L) and 100 units/mL Penicillin-100 μg/mL Streptomycin. For assay conditions, FBS was reduced to 2%. Cells are seeded into 96-well tissue culture plates at a density of 5×10^4 cells/well after being incubated for 45 min at 37° C. in the presence of HSV-1 or HSV-2 (MOI=0.001). Test compounds are added to the wells and the plates are incubated at 37° C. for 40-48 hours. Cell lysates are prepared as follows: media was removed and replaced with 150 μL/well 0.2 N NaOH with 1% Igepal CA 630 or NP-40. Plates were incubated up to 14 days at room temperature in a humidified chamber to prevent evaporation.
(b) Preparation of Detection DNA.
For the detection probe, a gel-purified, digoxigenin-labeled, […] PCR fragment of the HSV UL-15 sequence was utilized. PCR conditions included 0.5 μM primers, 180 μM dTTP, 20 μM dUTP-digoxigenin (Boehringer Mannheim 1558706), 200 μM each of dATP, dCTP, and dGTP, 1×PCR Buffer II (Perkin Elmer), 2.5 mM MgCl2, 0.025 units/μL of AmpliTaq Gold polymerase (Perkin Elmer), and 5 ng of gel-purified HSV DNA per 100 μL Extension conditions were 10 min at 95° C., followed by 30 cycles of 95° C. for 1 min, 55° C. for 30 sec, and 72° C. for 2 min. The amplification was completed with a 10-min incubation at 72° C. Primers were selected to amplify a 728 bp probe spanning a section of the HSV1 UL15 open reading frame (nucleotides 249-977). Single-stranded transcripts were purified with Promega M13 Wizard kits. The final product was mixed 1:1 with a mixture of 6 M GuSCN, 100 mM EDTA and 200 μg/mL herring sperm DNA and stored at 4° C.
(c) Preparation of Capture Plates.
The capture DNA plasmid (HSV UL13 region in pUC) was linearized by cutting with Xba I, denatured for 15 min at 95° C. and diluted immediately into Reacti-Bind DNA Coating Solution (Pierce, 17250, diluted 1:1 with TE buffer, pH 8) at 1 ng/μL. 75 μL/well were added to Corning (#3922 or 9690) white 96-well plates and incubated at room temperature for at least 4 hrs before washing twice with 300 μL/well 0.2×SSC/0.05% Tween-20 (SSC/T buffer). The plates were then incubated overnight at room temperature with 150 μL/well 0.2 N NaOH, 1% IGEPAL and 10 μg/mL herring sperm DNA.
Twenty-seven (27) μL of cell lysate was combined with 45 μL of hybridization solution (final concentration: 3M GuSCN, 50 mM EDTA, 100 μg/ml salmon sperm DNA, 5×Denhardt's solution, 0.25×APE, and 5 ng of the digoxigenin-labeled detection probe). APE is 1.5 M NH4-acetate, 0.15 M NH4H2 phosphate, and 5 mM EDTA adjusted to pH 6.0. Mineral oil (50 μL) was added to prevent evaporation. The hybridization plates were incubated at 95° C. for 10 minutes to denature the DNA, then incubated at 42° C. overnight. The wells were washed 6× with 300 μL/well SSC/T buffer then incubated with 75 μL/well anti-digoxigenin-HRP-conjugated antibody (Boehringer Mannheim 1207733, 1:5000 in TE) for 30 min at room temperature. The wells were washed 6× with 300 μL/well with PBS/0.05% Tween-20 before 75 μL/well SuperSignal LBA substrate (Pierce) was added. The plates were incubated at room temperature for 30 minutes and chemiluminescence was measured in a Wallac Victor reader.
The following results were obtained for HSV-1.
As a reminder, the IC50 is the point on the concentration scale where inhibition reaches its midpoint. As for `CN1CCN(CCCNc2nccc(-c3c(-c4ccc(F)cc4)nn4cc(C(F)(F)F)ccc34)n2)CC1` [Example 32, N-{4-[2-(4-fluorophenyl)-6-(trifluoromethyl)pyrazolo-[1,5-a]pyridin-3-yl]pyrimidin-2-yl}-N-[3-(4-methylpiperazin-1-yl)propyl]amine], the IC50 is 10 µM.

Staying with this test, now noted: Human alphaherpesvirus 1; HSV-1 in Vero 76 cells, MOI=0.001, 40-48 hours at 37° C.; read-out: IC50.
As for `CCCCNc1nccc(-c2c(-c3ccc(F)cc3)nn3cc(C(F)(F)F)ccc23)n1` [Example 31, N-Butyl-4-[2-(4-fluorophenyl)-6-trifluoromethylpyrazolo-[1,5-a]pyridin-3-yl]-2-pyrimidinamine], the IC50 amounted to 1.7 µM.
As to `Cc1ccc2c(-c3ccnc(NC4CCCC4)n3)c(-c3ccc(F)cc3)nn2c1` [Example 34, N-Cyclopentyl-4-[2-(4-fluorophenyl)-6-methylpyrazolo[1,5-a]pyridin-3-yl]-2-pyrimidinamine], the concentration for half-maximal inhibition (IC50) is 2 µM.
Take `Fc1ccc(-c2nn3cc(CNC4CCCC4)ccc3c2-c2ccnc(NC3CCCC3)n2)cc1` [Example 35, N-Cyclopentyl-4-[6-[(cyclopentylamino)methyl]-2-(4-fluorophenyl)-pyrazolo[1,5-a]pyridin-3-yl]-2-pyrimidinamine]: the concentration for half-maximal inhibition (IC50) came out at 4.5 µM.
As for `Fc1ccc(-c2nn3ccc(Cl)cc3c2-c2ccnc(NC3CCCC3)n2)cc1` [Example 36, 4-[5-Chloro-2-(4-fluorophenyl)pyrazolo[1,5-a]pyridin-3-yl]-N-cyclopentyl-2-pyrimidinamine], the IC50 was found to be 5 µM.
Consider `Fc1ccc(-c2nn3ccc(N4CCCC4)cc3c2-c2ccnc(NC3CCCC3)n2)cc1` [Example 37, N-Cyclopentyl-4-[2-(4-fluorophenyl)-5-(1-pyrrolidinyl)pyrazolo[1,5-a]pyridin-3-yl]-2-pyrimidinamine], for which the half-maximal inhibitory concentration (IC50) is 1.4 µM.
For `COc1ccc(-c2nn3ccc(Cl)cc3c2-c2ccnc(NC3CCCC3)n2)cc1` [Example 38, 4-[5-Chloro-2-(4-methoxyphenyl)pyrazolo[1,5-a]pyridin-3-yl]-N-cyclopentyl-2-pyrimidinamine], the IC50 was determined as 3.8 µM.
Take `O=C1CCCN1CCCNc1cc(-c2c(-c3ccc(F)cc3)nn3ccccc23)ccn1` [Example 39, 1-[3-({4-[2-(4-fluorophenyl)-pyrazolo[1,5-a]pyridin-3-yl]-2-pyridinyl}amino)propyl]-2-pyrrolidinone]: the half-maximal inhibitory concentration (IC50) came out at 1.7 µM.
Take `CNc1cc(-c2c(-c3ccc(F)cc3)nn3ccccc23)cc(F)n1` [Example 40, 6-Fluoro-4-[2-(4-fluorophenyl)-pyrazolo[1,5-a]pyridin-3-yl]-N-methyl-2-pyridinamine]: the IC50 came out at 5.3 µM.
For the molecule `CN(C)c1cc(-c2c(-c3ccc(F)cc3)nn3cccc(F)c23)ccn1` [Example 41, 4-[4-Fluoro-2-(4-fluorophenyl)-pyrazolo[1,5-a]pyridin-3-yl]-N,N-dimethyl-2-pyridinamine], the IC50 was 21.6 µM.
In the case of `C=CCNc1cc(-c2c(-c3ccc(F)cc3)nn3ccccc23)ccn1` [Example 42, N-Allyl-4-[2-(4-fluorophenyl)pyrazolo-[1,5-a]pyridin-3-yl]-2-pyridinamine], the IC50 amounted to 5 µM.
With `Fc1ccc(-c2nn3cc(Cl)ccc3c2-c2ccc(NC3CC3)nc2)cc1` [Example 43, 5-[6-Chloro-2-(4-fluorophenyl)-pyrazolo[1,5-a]pyridin-3-yl]-N-cyclopropyl-2-pyridinamine], the half-inhibitory concentration (IC50) is 2.4 µM.
On to `OCCCNc1cc(-c2c(-c3ccc(F)cc3)nn3ccccc23)c(Br)cn1` [Example 44, 3-({5-Bromo-4-[2-(4-fluorophenyl)-pyrazolo[1,5-a]pyridin-3-yl]-2-pyridinyl}amino)-1-propanol], for which the IC50 stood at 6.3 µM.
In the case of `COC(=O)c1ccc2c(-c3ccnc(NCCCOC(C)=O)c3)c(-c3ccc(F)cc3)nn2c1` [Example 45, Methyl 3-(2-{[3-(acetyloxy)propyl]-amino}-4-pyridinyl)-2-(4-fluorophenyl)pyrazolo[1,5-a]pyridine-6-carboxylate], the IC50 was found to be 2.6 µM.
As to `CN(C)C(=O)c1ccc2c(-c3ccnc(NC4CC4)n3)c(-c3ccc(F)cc3)nn2c1` [Example 47, 3-[2-(Cyclopropylamino)-4-pyrimidinyl]-2-(4-fluorophenyl)-N,N-dimethylpyrazolo[1,5-a]pyridine-6-carboxamide], the IC50 was determined as 1 µM.
On the same count and under the same terms, with `O=C(NC1CC1)c1ccc2c(-c3ccnc(NC4CC4)n3)c(-c3ccc(F)cc3)nn2c1` [Example 48, N-Cyclopropyl-3-[2-(cyclopropylamino)-4-pyrimidinyl]-2-(4-fluorophenyl)pyrazolo[1,5-a]pyridine-6-carboxamide] the figure was 0.9 µM; with `Fc1ccc(-c2nn3ccccc3c2-c2cc(-c3ccccc3)nc(NC3CCCC3)n2)cc1` [Example 49, N-Cyclopentyl-4-[2-(4-fluorophenyl)pyrazolo[1,5-a]pyridin-3-yl]-6-phenyl-2-pyrimidinamine], 2.9 µM.
On the same count and under the same terms, with `CCCCNc1nccc(-c2c(-c3ccc(F)cc3)nn3c(OCCF)cccc23)n1` [Example 57, N-Butyl-4-[7-(2-fluoroethoxy)-2-(4-fluorophenyl)pyrazolo[1,5-a]pyridin-3-yl]-2-pyrimidinamine] the figure was 2.5 µM; with `CSc1nccc(-c2c(-c3ccc(F)cc3)nn3c(OCC(F)(F)F)cccc23)n1` [Example 59, 2-(4-Fluorophenyl)-3-(4-(2-methylthio)pyrimidinyl)-7-(2,2,2-trifluoroethoxy)pyrazolo[1,5-a]pyridine], 10 µM.
`CCCCNc1nccc(-c2c(-c3ccc(F)cc3)nn3c(OCC(F)(F)F)cccc23)n1` [Example 60, N-Butyl-4-[2-(4-fluorophenyl)-7-(2,2,2-trifluoroethoxy)pyrazolo[1,5-a]pyridin-3-yl]-2-pyrimidinamine]: the IC50 amounted to 5 µM.
Regarding `Fc1ccc(-c2nn3c(OCC(F)(F)F)cccc3c2-c2ccnc(NC3CC3)n2)cc1` [Example 62, N-Cyclopropyl-4-[2-(4-fluorophenyl)-7-(2,2,2-trifluoroethoxy)pyrazolo [1,5-a]pyridin-3-yl]-2-pyrimidinamine], the half-maximal inhibitory concentration (IC50) worked out at 2 µM.
Turning to `Fc1ccc(-c2nn3c(OCC(F)(F)F)cccc3c2-c2ccnc(NC3CCCCC3)n2)cc1` [Example 64, N-Cyclohexyl-4-[2-(4-fluorophenyl)-7-(2,2,2-trifluoroethoxy)pyrazolo[1,5-a]pyridin-3-yl]-2-pyrimidinamine], the half-inhibitory concentration (IC50) turned out to be 0.9 µM.
Regarding `COc1nccc(-c2c(-c3ccc(F)cc3)nn3c(OCC(F)(F)F)cccc23)n1` [Example 66, 2-(4-Fluorophenyl)-3-(4-(2-methyloxy)pyrimidinyl)-7-(2,2,2-trifluoroethoxy)pyrazolo[1,5-a]pyridine], the 50% inhibitory concentration (IC50) is 25 µM.
With `Fc1ccc(-c2nn3c(OCC(F)(F)F)cccc3c2-c2ccnc(Oc3ccccc3)n2)cc1` [Example 67, 2-(4-Fluorophenyl)-3-(4-(2-phenyloxy)pyrimidinyl)-7-(2,2,2-trifluoroethoxy)pyrazolo[1,5-a]pyridine], the 50% inhibitory concentration (IC50) turned out to be 15 µM.
As for `Fc1ccc(-c2nn3c(OCC(F)(F)F)cccc3c2-c2ccnc(OCC(F)(F)F)n2)cc1` [Example 68, 2-(4-Fluorophenyl)-3-(4-(2-(2,2,2-trifluoroethoxy))pyrimidinyl)-7-(2,2,2-trifluoroethoxy)pyrazolo[1,5-a]pyridine], the IC50 was 15 µM.
On to `Cc1c(C(=O)NC2CC2)ccc2c(-c3ccnc(NC4CCCC4)n3)c(-c3ccc(F)cc3)nn12` [Example 83, 3-[2-(Cyclopentylamino)-4-pyrimidinyl]-N-cyclopropyl-2-(4-fluorophenyl)-7-methylpyrazolo[1,5-a]pyridine-6-carboxamide], for which the IC50 is 1 µM.
